Data from patent US4835185A, “Immunomodulator for improving commercial performance of domestic animals” (Iowa State University Research Foundation, Inc., priority 1987, dated 1989).

How the values were obtained:
[1] = Dairy Cattle Trial: nitrogen balance, milk production and composition; type: in vivo, Holstein and Brown Swiss cows (cattle)
Description: Eight Holstein and four Brown Swiss cows were assigned randomly (blocking for lactation number and breed) to either a control or treatment group. Four of the Holsteins and two of the Brown Swiss were in their first lactation and all cows were between 134-283 days into lactation (mid-lactation). Cows were milked twice daily (2:30 a.m. and 2:00 p.m.).
Cows were fed ad libitum a total mixed ration twice daily (7:30 a.m. and 5:30 p.m.) with feed refusals collected before the morning feeding. The diet consisted of 31% chopped alfalfa hay, 18% corn silage, and […] (as a % of the dry matter). The grain mix was calculated to contain 1.55 Mcal NE/kg dry matter and 16% crude protein. A major portion of the grain protein was from expeller processed soybean meal with higher than usual bypass characteristics. The cows were consuming protein in excess of their normal requirements. The grain ration contained an estimated 10% leucine (total protein basis), and the complete diet contained an estimated 9% leucine (total protein basis).
During the treatment period half the cows received Na-KIC at 0.75% of the diet dry matter. KIC was fed in a mixture which consisted of Na-KIC, corn gluten meal, hydrogenated soy oil and paraffin in a ratio of 2:1.0:0.1:0.1. The mixture was extruded and formed into crumbles. At least part of the KIC may have escaped rumen degradation with this treatment. Additionally, 100 units of tocopherol were added per gram of Na--KIC to prevent oxidation of KIC. Control animals were fed an equivalent amount of the same mixture but without KIC added.
During the first two weeks of the experiment (control period; designated weeks -2 and -1), all cows received the same diet. The trial period extended over the next three weeks (weeks 1, 2, 3) during which cows received either the KIC or control mix top-dressed on their diets twice per day (half the dose in the morning, half in the evening). Throughout the experiment, daily milk yield, milk composition, and feed consumption was measured for each cow. At the end of the control period and at the end of the treatment period, uninary catheters were inserted and total urine and fecal collections were made for 48 hrs. Results of production and nitrogen balance studies were analyzed statistically using each cow as her own control. The trial effect was measured by subtracting the average control period value from the value during the treatment period. ANOVA was used to detect differences between the KIC-fed and control groups.

plasma cortisol = experiment: Plasma cortisol in pigs after test meals; type: in vivo
Experimental: To determine if KIC could acutely alter cortisol concentrations, young pigs were fed meals supplemented with leucine or KIC and plasma cortisol was measured.
In experiment 1, sixteen female pigs weighing 20-30 kg were used. Seven days before study, catheters were surgically placed in the right atria for blood sampling. Animals were housed in individual cages during the recovery period and had free access to water. Preceding the experiment, animals were fed twice daily a basal diet (2% of body weight per feeding). The basal diet consisted of a corn-soybean mix, adequate in all minerals and vitamins and containing approximately 14% crude protein. Test meals were formulated by additions to a basal diet. Five animals received the basal diet (control); five animals received the leucine meal, which had 2% leucine added to the basal diet; and six animals received the KIC diet, which had 2% KIC (sodium salt equivalent to 1.7% free acid) added to the basel diet. Studies were begun between 0800 and 0900 h after a 24-hr fast. Basal blood samples were taken at -20, -10 and -5 min. Animals were then offered 100 g of their respective test meal (time 0). Pigs were included in the study only if they consumed the entire meal in the first 20 min. […] Plasma was separated, Trasylol (FBA Pharmaceuticals, New York, NY) added (50 ul/ml), and plasma stored at -70 C. until analyzed.
Cortisol was measured by coated tube kits (Gammacoat, Travenol-Genetech Diagnostics, Cambridge, MA). Leucine and KIC were measured by high pressure liquid chromatography. Crystalline leucine was obtained from Sigma Chemical (St. Louis, MO) and KIC-sodium was obtained from SOBAC (Paris, France). Statistical analysis of the individual pig responses was conducted on mean plasma concentrations before the meal (-20 to 0 min) and after the meal (120 to 240 min). When the overall treatment F-value was significant, differences between individual treatments were determined using the pooled SEM and a T-test.

[2] = Na-KIC 0.75% of diet dry matter, pre 186

Q: Which results are given for CC(C)CC(=O)C(=O)O [KIC, alpha-ketoisocaproate]?
A: Feces output, Change ([1]; KIC group, control +1): -6 g N/day; Milk output, Change ([1]; KIC group, control +3): +9 g N/day; Urine output, Change ([1]; KIC group, control +15): 0 g N/day; Body storage (N balance), Change ([1]; KIC group, control +18): +26 g N/day; Feed intake, Change ([1]; KIC group, control +37): +28 g N/day; Milk fat yield, Change ([1]; KIC group, control +.00): +.09 kg/day; Milk fat percent, Change ([1]; KIC group, control +.03): +.21%; Milk protein percent, Change ([1]; KIC group, control +.13): +.11%; Milk yield, Change ([1]; KIC group, control -.13): +.97 kg/day; Milk protein percent, Post ([1]; Na-KIC 0.75% of diet dry matter, pre 3.35): 3.46%; Milk fat percent, Post ([1]; Na-KIC 0.75% of diet dry matter, pre 4.07): 4.27%; Milk yield, Post ([1]; Na-KIC 0.75% of diet dry matter, pre 23.0): 23.9 kg/day; Body storage (N balance), Post ([1]; Na-KIC 0.75% of diet dry matter, pre 34): 60 g N/day; Milk output, Post ([1]; Na-KIC 0.75% of diet dry matter, pre 131): 140 g N/day; Feces output, Post [1, 2]: 180 g N/day; Urine output, Post [1, 2]: 186 g N/day; Feed intake, Post ([1]; Na-KIC 0.75% of diet dry matter, pre 538): 566 g N/day; Milk fat yield, Post ([1]; Na-KIC 0.75% of diet dry matter, pre printed 92): 1.00 kg/day; milk fat yield increase ([1]; above controls, p<0.02): 10%; higher milk yields ([1]; vs control cows): +5%; higher percent milk fat ([1]; vs control cows, p<0.04): +4%; Body storage (N balance), % Change ([1]; vs control, NS): +24%; Body storage (N balance), KIC effect ([1]; vs control, NS): +8 g N/day; Feces output, % Change ([1]; vs control, NS): -4%; Feces output, KIC effect ([1]; vs control, NS): -8 g N/day; Feed intake, % Change ([1]; vs control, NS): -2%; Feed intake, KIC effect ([1]; vs control, NS): -9 g N/day; Milk output, % Change ([1]; vs control, NS): +5%; Milk output, KIC effect ([1]; vs control, NS): +6 g N/day; Milk protein percent, KIC effect ([1]; vs control, NS): -.03%; Urine output, % Change ([1]; vs control, NS): -85; Urine output, KIC effect ([1]; vs control, NS): -15 g N/day; Milk fat yield, % Change ([1]; vs control, p < .01): +10.4%; Milk fat yield, KIC effect ([1]; vs control, p < .01): +.09 kg/day; Milk fat percent, % Change ([1]; vs control, p < .04): +4.3%; Milk fat percent, KIC effect ([1]; vs control, p < .04): +.17%; Milk yield, % Change ([1]; vs control, p < .15): +5.1%; Milk yield, KIC effect ([1]; vs control, p < .15): +1.10 kg/day; decrease in cortisol concentration (plasma cortisol; 2% KIC, by 240-300 minutes after the meal, p<0.01): 40%; Plasma cortisol, Change (plasma cortisol; 2% in meal, control -0.09): -1.99 µg/dL; Plasma cortisol, Post (plasma cortisol; 2% in meal, pre: leucine 2.8, KIC 4.7, pooled SEM 0.49): 2.9 µg/dL
